Experimental data from PubChem BioAssay (NCI).
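1) Cells in 96-well plates. 2) Compound, 48 h, 5 concentrations. 3) Linear interpolation between surrounding doses. 4) Unreached endpoint = highest concentration. TGI marks complete inhibition of growth.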

Assays:
Test in all cases: inhibition of tumour cell growth, NCI panel, 48 h
MDA-N = test system: MDA-N
UO-31 renal = test system: UO-31 renal
HOP-62 NSCLC = test system: HOP-62 NSCLC
PC-3 prostate = test system: PC-3 prostate
UACC-62 melanoma = test system: UACC-62 melanoma
OVCAR-5 ovarian = test system: OVCAR-5 ovarian
HT29 colon = test system: HT29 colon
SN12C renal = test system: SN12C renal
HOP-92 NSCLC = test system: HOP-92 NSCLC
CAKI-1 renal = test system: CAKI-1 renal
ACHN renal = test system: ACHN renal
NCI/ADR-RES ovarian = test system: NCI/ADR-RES ovarian
KM12 colon = test system: KM12 colon
SW-620 colon = test system: SW-620 colon
A549 NSCLC = test system: A549 NSCLC
DU-145 prostate = test system: DU-145 prostate
SR leukemia = test system: SR leukemia

| Compound | TGI (MDA-N) | TGI (UO-31 renal) | TGI (HOP-62 NSCLC) | TGI (PC-3 prostate) | TGI (UACC-62 melanoma) | TGI (OVCAR-5 ovarian) | TGI (HT29 colon) | TGI (SN12C renal) | TGI (HOP-92 NSCLC) | TGI (CAKI-1 renal) | TGI (ACHN renal) | TGI (NCI/ADR-RES ovarian) | TGI (KM12 colon) | TGI (SW-620 colon) | TGI (A549 NSCLC) | TGI (DU-145 prostate) | TGI (SR leukemia) |
| --- | --- | --- | --- | --- | --- | --- | --- | --- | --- | --- | --- | --- | --- | --- | --- | --- | --- |
| O=C(NC1=NC2C=CC([N+](=O)[O-])=CC2S1)C(=O)Nn1c(=S)[nH]c2ccccc2c1=O (stereo unspecified) | > 100 µM | > 100 µM | > 100 µM | > 100 µM | > 100 µM | > 100 µM | > 100 µM | > 100 µM | > 100 µM | > 100 µM | 85.3 µM | > 100 µM | > 100 µM | > 100 µM | > 100 µM | – | – |
| CN(C)c1nc(NN)c2c(-c3ccccc3)c(-c3ccccc3)oc2n1 | – | > 100 µM | – | – | > 100 µM | > 100 µM | > 100 µM | > 100 µM | > 100 µM | > 100 µM | > 100 µM | > 100 µM | > 100 µM | > 100 µM | > 100 µM | > 100 µM | > 100 µM |
| OC1CN2CCS[C@H]2C(O)C1O (stereo partly specified) | – | > 100 µM | > 100 µM | > 100 µM | > 100 µM | > 100 µM | > 100 µM | – | > 100 µM | > 100 µM | > 100 µM | > 100 µM | > 100 µM | > 100 µM | > 100 µM | > 100 µM | > 100 µM |
| CCCCCCCC/C=C\CCCCCCCC(=O)NCCN(CCN)C(=O)CCCCCCC/C=C\CCCCCCCC | – | > 100 µM | > 100 µM | – | > 100 µM | > 100 µM | > 100 µM | > 100 µM | > 100 µM | > 100 µM | > 100 µM | – | – | > 100 µM | > 100 µM | – | > 100 µM |
| O=[N+]([O-])c1cc(Cl)cc2cc(Cl)cnc12 | – | > 100 µM | > 100 µM | > 100 µM | > 100 µM | > 100 µM | > 100 µM | > 100 µM | > 100 µM | > 100 µM | > 100 µM | > 100 µM | – | > 100 µM | > 100 µM | > 100 µM | > 100 µM |
| O=C(/C=C/c1ccco1)CC(=O)/C=C/c1ccco1 | 15 µM | 20.2 µM | 17.3 µM | – | > 31.6 µM | 23.3 µM | – | 17.5 µM | 71.7 µM | 26.2 µM | 21 µM | 21.7 µM | > 55.2 µM | 17.1 µM | 24.5 µM | – | 17.4 µM |
| O=c1[nH]nc(Cc2ccc(Cl)cc2)n1/N=C\c1ccc(/C=N/n2c(Cc3ccc(Cl)cc3)n[nH]c2=O)cc1 | > 100 µM | > 100 µM | 57.5 µM | > 100 µM | > 100 µM | > 100 µM | > 100 µM | > 100 µM | > 100 µM | > 100 µM | > 100 µM | > 100 µM | > 100 µM | > 100 µM | > 100 µM | > 100 µM | – |
| CC(=O)O[C@H]1C(=O)[C@@]2(C)C(C(OC(=O)c3ccccc3)[C@]3(O)CC(OC(=O)C(O)C(NC(=O)c4ccc(C)cc4)c4ccccc4)C(C)=C1C3(C)C)[C@]1(OC(C)=O)CO[C@@H]1C[C@@H]2O (stereo partly specified) | – | 9.23 µM | 14.1 µM | – | 7.44 µM | 3.98 µM | – | > 25 µM | – | 11.1 µM | > 25 µM | – | 19.8 µM | – | > 25 µM | – | – |
| CC(=O)OCC1OC(n2c(N)c(C#N)c(-c3ccc(C)cc3)c(C#N)c2=S)C(OC(C)=O)C(OC(C)=O)C1OC(C)=O (stereo unspecified) | 30.9 µM | 31.8 µM | 47.2 µM | > 100 µM | > 100 µM | > 100 µM | 39.1 µM | 41 µM | 28.5 µM | > 100 µM | > 100 µM | 91.9 µM | > 100 µM | > 100 µM | 29.5 µM | 28.7 µM | – |
| COc1ccc2oc(C(=O)N3CC(CCl)c4ccc([N+](=O)[O-])cc43)cc2c1 (stereo unspecified) | – | > 100 µM | 31.5 µM | > 100 µM | > 100 µM | – | – | – | > 100 µM | 45.6 µM | > 100 µM | > 100 µM | > 100 µM | > 100 µM | – | > 100 µM | > 100 µM |
| CN(CCCCN(C)CCc1ccc(Cl)c(Cl)c1)CCCCN1CCCC1 | 2.64 µM | 0.96 µM | 3.74 µM | 4.52 µM | 3.42 µM | 5.54 µM | 1.88 µM | 4.01 µM | 2.95 µM | 3.13 µM | 3.64 µM | 13.4 µM | 1.92 µM | 3.02 µM | 3.35 µM | 8.92 µM | – |
| CC(C)NCC(O)c1ccc(OCc2ccccc2)c(OCc2ccccc2)c1-c1ccccc1 (stereo unspecified) | 3.1 µM | 7.82 µM | 3.25 µM | 3.11 µM | 2.72 µM | 3.16 µM | 3.04 µM | 3.13 µM | 6.94 µM | 3.18 µM | 3.06 µM | 3.73 µM | – | 3.13 µM | 3.21 µM | 3.14 µM | – |
| O=C(OC(=C(c1ccccc1)c1ccccc1)N1CCCC1=S)C(c1ccccc1)c1ccccc1 | – | > 10 µM | > 10 µM | > 10 µM | > 10 µM | > 10 µM | > 10 µM | > 10 µM | – | > 10 µM | > 10 µM | > 10 µM | > 10 µM | > 10 µM | > 10 µM | > 10 µM | > 10 µM |
| CN(C)c1ccc(/C=C(\NC(=O)c2ccccc2)C(=O)NC(CCC(=O)O)C(=O)O)cc1 (stereo unspecified) | > 100 µM | > 100 µM | > 100 µM | > 100 µM | > 100 µM | > 100 µM | > 100 µM | > 100 µM | > 100 µM | > 100 µM | > 100 µM | > 100 µM | > 100 µM | > 100 µM | > 100 µM | > 100 µM | – |
| CN(/N=C/C=N/N(C)C1=NCCCCN1)C1=NCCCCN1 | > 100 µM | > 100 µM | > 100 µM | > 100 µM | > 100 µM | > 100 µM | > 100 µM | > 100 µM | – | > 100 µM | > 100 µM | > 100 µM | – | > 100 µM | > 100 µM | – | > 100 µM |
| COC(=O)[C@]1(C)CCC[C@@]2(C)C1CCC1=CC3(C(C)C)CCC12OO3 (stereo partly specified) | – | > 100 µM | > 100 µM | – | > 100 µM | > 100 µM | > 100 µM | > 100 µM | – | > 100 µM | > 100 µM | – | > 100 µM | > 100 µM | > 100 µM | – | > 100 µM |
